Results on 67 compounds are retold here after PubChem BioAssay AID602168 (The Scripps Research Institute Molecular Screening Center, 2012).

The assay deals with Nuclear receptor coactivator 1 (Homo sapiens) (UniProt Q15788). Briefly: SRC1 coactivator transcriptional activity inhibitors, dose response, counter-screen for SRC3 inhibitor project, cell-based, luminescence (AID 602168). The conditions noted are these: Cell-based SRC1 luciferase reporter. A general note: Counterscreens check selectivity or assay interference.
Sequence of Nuclear receptor coactivator 1 (Homo sapiens) (Q15788 whole entry, looked up): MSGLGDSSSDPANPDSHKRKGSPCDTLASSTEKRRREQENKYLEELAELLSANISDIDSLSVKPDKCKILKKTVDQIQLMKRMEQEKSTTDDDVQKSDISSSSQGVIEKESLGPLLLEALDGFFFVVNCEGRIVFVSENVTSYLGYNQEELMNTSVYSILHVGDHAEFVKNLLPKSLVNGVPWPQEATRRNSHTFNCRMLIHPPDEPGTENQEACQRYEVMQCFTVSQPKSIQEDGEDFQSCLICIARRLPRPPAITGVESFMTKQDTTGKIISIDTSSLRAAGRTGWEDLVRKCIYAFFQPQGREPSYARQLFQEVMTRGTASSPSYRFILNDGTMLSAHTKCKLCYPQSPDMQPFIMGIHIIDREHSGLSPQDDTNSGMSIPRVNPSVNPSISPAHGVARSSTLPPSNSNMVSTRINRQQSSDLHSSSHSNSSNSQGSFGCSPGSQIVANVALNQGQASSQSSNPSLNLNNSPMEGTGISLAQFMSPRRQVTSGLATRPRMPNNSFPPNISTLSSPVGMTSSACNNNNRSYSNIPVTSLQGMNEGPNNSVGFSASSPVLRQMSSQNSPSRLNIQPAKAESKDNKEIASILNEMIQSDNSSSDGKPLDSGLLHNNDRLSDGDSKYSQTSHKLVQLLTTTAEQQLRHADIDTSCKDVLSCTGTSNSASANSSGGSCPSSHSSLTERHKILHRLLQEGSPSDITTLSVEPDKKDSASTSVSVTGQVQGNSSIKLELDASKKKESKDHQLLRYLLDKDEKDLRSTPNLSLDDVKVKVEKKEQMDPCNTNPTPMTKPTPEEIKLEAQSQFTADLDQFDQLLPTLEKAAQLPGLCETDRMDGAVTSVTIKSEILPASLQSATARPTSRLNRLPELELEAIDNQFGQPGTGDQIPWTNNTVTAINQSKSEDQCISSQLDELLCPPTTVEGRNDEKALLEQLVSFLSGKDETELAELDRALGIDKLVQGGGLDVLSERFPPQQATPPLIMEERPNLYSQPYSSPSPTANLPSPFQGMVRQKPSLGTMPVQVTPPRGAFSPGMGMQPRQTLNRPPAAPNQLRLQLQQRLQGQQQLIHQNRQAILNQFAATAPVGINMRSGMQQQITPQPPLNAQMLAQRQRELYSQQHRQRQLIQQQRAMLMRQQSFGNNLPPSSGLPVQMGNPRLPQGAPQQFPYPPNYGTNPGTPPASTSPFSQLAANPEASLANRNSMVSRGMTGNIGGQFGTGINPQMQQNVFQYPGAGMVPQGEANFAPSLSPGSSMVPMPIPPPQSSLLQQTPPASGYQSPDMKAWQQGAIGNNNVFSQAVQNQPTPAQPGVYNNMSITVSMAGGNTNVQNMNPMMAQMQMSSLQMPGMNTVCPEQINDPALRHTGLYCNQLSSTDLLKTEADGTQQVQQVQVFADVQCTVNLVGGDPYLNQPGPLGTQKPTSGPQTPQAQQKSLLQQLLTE

Each structure is given as a SMILES string. Active and inactive are the calls of the source. The rule behind the calls is not given here.

On to `C[C@@H](C(=O)Nc1ccc2c(c1)OCCO2)n1c(=O)[nH]c2ccccc2c1=O`, for which the IC50 was > 35.9 µM (inactive).
Regarding `CN[C@H]1CCc2cc(OC)c(OC)c(OC)c2-c2ccc(OC)c(=O)cc21`, the IC50 is > 35.9 µM (inactive).
Consider `CC(=O)NC(c1cc(Cl)c2cccnc2c1O)C(C)C` (configuration not stated), for which the IC50 is 7.94 µM.
With `NS(=O)(=O)c1ccc(Sc2nc3ccccc3s2)c([N+](=O)[O-])c1`, the IC50 was > 35.9 µM (inactive).
The result for `CCn1nc(/C=C/c2ccccc2)nc2c(=O)n(C)c(=O)nc1-2` reads > 35.9 µM (inactive); that for `Brc1ccc2ncc3ccccc3c2c1`, “inactive”.
The result for `Cc1cccc(NC(=O)c2cc(Cl)ccc2[N+](=O)[O-])c1` reads “inactive”.
In the case of `N#Cc1c2ccc(O)cc2n2ccccc12` it was “inactive”.
Take `CN(C)c1ccc(/C=C/c2ccc3ccccc3n2)cc1`: the IC50 entry was “inactive”.
In the case of `CCCC(=O)NC(c1ccc2c(c1)OCO2)c1cc(Cl)c2cccnc2c1O` (configuration not stated) it was 7.24 µM.
For the compound `CNC(=O)c1cccn(Cc2ccc(C(F)(F)F)cc2)c1=O`, the IC50 was > 35.8 µM (inactive).
Regarding `O=[N+]([O-])c1nn(-c2ccc3c(c2)OCCO3)n(O)c1=Nc1ccccc1`, the IC50 is 0.812 µM.
For the compound `COc1cc2c(cc1OC)C(C)N(C(=O)c1cccc([N+](=O)[O-])c1)CC2` (configuration not stated), the IC50 result is “inactive”.
In the case of `CC1CCN(C2=NC(=O)/C(=C/c3ccccc3F)S2)CC1` it was > 35.9 µM (inactive); in that of `CC(C)(C)C(=O)Nc1ccc(N=Nc2ccccc2)cc1`, > 35.9 µM (inactive); in that of `Cc1c(Cl)cccc1NC(=O)Nc1ccccc1C(N)=O`, > 35.9 µM (inactive).
In the case of `Cc1ccc2occ(/C=N/NC(=O)c3ccccc3Br)c(=O)c2c1` it was > 35.9 µM (inactive).
`Cc1ccc(-n2c(C)cc(C(=O)COc3cccnc3[N+](=O)[O-])c2C)cc1`: the IC50 is > 35.9 µM (inactive).
In the case of `Cc1cccc(CN2CCN(C(=O)CCl)CC2)c1`, the IC50 was > 35.9 µM (inactive).
In the case of `COc1ccc(/C=C2\CC/C(=C\c3ccc(OC)c(OC)c3)C2=O)cc1OC` it was > 35.9 µM (inactive); in that of `CCOc1cc(C(N)=O)cc(Br)c1OC`, “inactive”; in that of `OCCN1CCN(C(=S)c2ccc(-c3ccccc3)cc2)CC1`, 3.67 µM.
In the case of `COc1cc(C(=O)N/N=C(\c2ccccc2)c2ccccn2)cc(OC)c1OC` it was > 12 µM (inactive); in that of `COc1ccc(-n2cnc3c(sc4nccc(N(C)C)c43)c2=O)cc1`, “inactive”; in that of `NC(=O)c1cc(Sc2ccccc2)nc2ccccc12`, “inactive”.
The result for `Cc1cc(C(=O)CN2C(=O)c3ccccc3S2(=O)=O)c(C)n1C(C)C` reads “inactive”.
As for `O=C(OCc1ccccc1)c1ccc(NCc2cc(O)ccc2O)cc1`, the IC50 is > 12 µM (inactive).
The result for `O=C(Nc1nc2cc3c(cc2s1)OCCO3)C1=COCCO1` reads “inactive”; that for `CO[C@@]12[C@@H]3N[C@@H]3CN1C1=C(C(=O)C(N)=C(C)C1=O)[C@@H]2COC(N)=O`, > 35.8 µM (inactive).
With `Cc1ccc(/C=C2\SC(=S)N(CCCC(=O)NC3CCCC3)C2=O)cc1`, the IC50 was 3.26 µM.
For `Cc1sc2ncnc(N3CCC(C(=O)Nc4ccccc4C(C)(C)C)CC3)c2c1C`, the IC50 was 7.15 µM.
The result for `CC1(C)N=C(N)N=C(N)N1CCCCc1ccccc1` reads 4.58 µM; that for `O=C(NC1CCCCC1)C(c1cccnc1)N(C(=O)CCl)c1cccc(Cl)c1` (configuration not stated), “inactive”.
In the case of `CC(=O)/C(N=Nc1ccc2c(c1)OCCO2)=C(\C)O` it was > 35.9 µM (inactive).
The result for `CCOc1ccc(/C=C2\SC(=S)N(CCC(=O)O)C2=O)cc1` reads 9.2 µM; that for `C#CC(=O)N(c1cc(OC)ccc1OC)C(C(=O)NC1CCCC1)c1cccs1` (configuration not stated), > 35.9 µM (inactive).
Regarding `Cc1c(CC(=O)NCCCC(=O)O)c(=O)oc2cc3c(cc12)CCC(C)(C)O3`, the IC50 is 9.04 µM.
In the case of `COc1ccc(CCNC(=O)c2nnn(-c3ccc4c(c3)OCCO4)c2N)cc1OC` it was > 35.9 µM (inactive); in that of `CCC(=O)N1CCN(c2ccnc3cc(Cl)ccc23)CC1`, “inactive”; in that of `COC(=O)c1cccc2c1-c1ccccc1/C2=N/O`, 6.3 µM.
Consider `O=C(CNc1cccc([N+](=O)[O-])c1)N/N=C/c1ccc([N+](=O)[O-])o1`, for which the IC50 was > 35.9 µM (inactive).
In the case of `CCc1nc(N)nc(N)c1-c1ccc(Cl)c([N+](=O)[O-])c1` it was 0.603 µM.
In the case of `CN(Cc1cnc2nc(N)nc(N)c2n1)c1ccc(C(=O)N[C@@H](CCC(=O)O)C(=O)O)cc1` it was > 35.9 µM (inactive).
The result for `O=[N+]([O-])c1cccc2c1ccc1ncccc12` reads “inactive”.
Regarding `COc1cccc(/C=N/Nc2ccc([N+](=O)[O-])cn2)c1O`, the IC50 is > 35.9 µM (inactive).
The result for `C=C1C(=O)[C@]23C[C@H]1CCC2[C@@]1(C)C(C[C@@H]3O)[C@](C)(C(=O)OC)CC[C@@H]1O` (some centres not stated) reads “inactive”; that for `C(=Cc1cnc2ccccc2n1)c1ccc2c(c1)OCO2`, “inactive”; that for `COc1ccc(C(C(=O)NC2CCCCC2)N(C(=O)CCl)c2ccc(OC)cc2)cc1` (configuration not stated), “inactive”.
As to `Cc1ccc(N=Nc2ccc3ccccc3c2O)cc1`, the IC50 is > 35.9 µM (inactive).
`COC(CN(C(=O)CCl)C(C(=O)NC1CCCCC1)c1ccccc1C)OC` (configuration not stated): the IC50 result is “inactive”.
With `O=C(c1ccncc1)N(Cc1cc2ccccc2[nH]c1=O)C1CCCCC1`, the IC50 was 7.48 µM.
Consider `Nc1ncnc(NCc2ccccc2)c1[N+](=O)[O-]`, for which the IC50 entry is “inactive”.
Take `Fc1ccccc1-c1csc(=Nc2cccnc2)n1CCCn1ccnc1`: the IC50 was 7.21 µM.
For the compound `Cc1c(/C(O)=C2/C(=O)C(=O)N(Cc3cccnc3)C2c2ccccn2)cnn1-c1ccccc1` (configuration not stated), the IC50 is > 35.9 µM (inactive).
Take `Cc1nc([N+](=O)[O-])c(Sc2nc3ccccc3n2C)n1Cc1ccccc1`: the IC50 was > 35.9 µM (inactive).
In the case of `CCCc1c(C)nc2ccccc2c1SCCC#N` it was 9.45 µM.
For the compound `c1ccc(-c2nnc(-c3ccccn3)nc2NC2CCCCC2)cc1`, the IC50 is 4.38 µM.
Regarding `O=C(NCc1ccccc1)c1c(Cl)nc(Cl)c(Cl)c1Cl`, the IC50 is > 35.9 µM (inactive).
Take `COc1cc(/C=N/NC(N)=S)cc(Br)c1OCc1ccccc1F`: the IC50 result was “inactive”.
The result for `COc1cccc2c1C(=N)c1c(O)c3c(c(O)c1C2=O)CC(O)(C(C)=O)CC3OC1CC(N)C(O)C(C)O1` (configuration not stated) reads > 35.9 µM (inactive); that for `O=C(CCCc1nc(-c2ccccc2Cl)no1)NC1CCCC1`, “inactive”; that for `Nc1nc(=S)c2ncn([C@@H]3O[C@H](CO)[C@@H](O)[C@H]3O)c2[nH]1`, > 35.9 µM (inactive).
Take `Cc1cc2nccc(-c3ccncc3)n2n1`: the IC50 entry is “inactive”.
In the case of `CCCS(=O)(=O)Nc1ccc(Nc2c3ccccc3nc3ccccc23)c(OC)c1` it was 0.525 µM; in that of `Nc1nc(CCl)nc(Nc2cccc3ccccc23)n1`, “inactive”.
On to `O=c1[nH]c2ccccc2n1C1CCN(C(c2cccc3ccccc23)c2nnnn2-c2ccc3c(c2)OCCO3)CC1` (configuration not stated), for which the IC50 entry is “inactive”.
In the case of `C=CCOn1c(C)c(C(C)=O)c2c3nonc3ccc21` it was 9.06 µM.

Usually IC50 stands for the concentration needed to halve the response being measured.
